Source: patent US20080280996A1, “Use of Carophyllenes in the Manufacture of Medicaments and Treatment of Bodily Conditions of Inflammation and Inflammatory Pain” (priority 2004, published 2008)

Test system: carrageenin-induced inflammatory nociception in the hind paw
Assay: Inflammatory nociception induced by carrageenin (von Frey filament)
Format: in vivo
Details: mice, carrageenin 300 μg per paw intraplantar; alpha-humulene 50 mg/kg orally or paracetamol 600 mg/kg orally, 1 h before; evaluated after 3, 4 and 6 hours
Method: The evaluation methodology used in this test is described by Vaz et al. in J. Pharmacol. Exp. Ther. 278:304-312, 1996. Male mice (25-35 g) were systemically (orally) treated with alpha-humulene, 50 mg/kg, administered 1 hour before the experiment. Animals treated with 0.9% saline solution (0.1 ml/10 g) were used as the control. Another group of animals was treated with paracetamol (600 mg/kg, orally, administered 1 h before the treatment), that was used as positive control. For the induction of inflammatory pain, the animals received an intraplantar injection of 0.05 ml of carrageenin (300 μg per paw) at the plantar surface of the right hind paw. […] The nociception was evaluated with a Von Frey filament (0.4 g) after 3, 4 and 6 hours. […] The filament was applied to the right hind paw, complying with the criteria of (1) the application was perpendicular to the plantar surface, with enough pressure to cause the filament to bend, thus obtaining total pressure; (2) the animals were evaluated when the four paws were touching the screen; (3) the paw withdrawal response was considered when the animal removed the paw entirely from the support screen; (4) each animal was stimulated 10 consecutive times, each stimulation lasting 1 second; (5) each paw withdrawal event was considered as 10% of the response, with 10 withdrawal events corresponding to 100% response. […]

CC(=O)Nc1ccc(O)cc1 [paracetamol, reference compound]
inflammatory nociception (paw withdrawal response to 0.4 g von Frey filament): reduced the inflammatory nociception
